Reference: US8715761B2, “Flavor molecules” (Givaudan S.A., priority 2008, dated 2014)

Columns and labels:
Format in all cases: in vivo
[1] = Sweet isointensity against sugar solutions by a testing panel
Description: The sweet isointensity was tested against a variety of sugar solutions by a testing panel.

[2] = Sweetness in plain non-fat yoghurt by a trained panel; details: 5% sugar and 25 ppm of the compound in plain non-fat yoghurt
Description: 5% sugar and 25 ppm of the compound were added to plain non-fat yoghurt. A trained panel compared this to a series of plain non-fat yoghurts to which 5%, 6% 7% and 8% sugar had been added.

[3] = Taste testing in water by a panel of experienced tasters
Description: The taste testing was made by a panel of experienced tasters.

[4] = Flavorist evaluation of how Compound 13 modifies a flavor in water and in application
Description: Evaluation Data on the Compound of Example 13, showing how it Modifies a Flavor in Water and in Application.
Strawberry A=candy strawberry. Strawberry B=green strawberry. Strawberry C=floral strawberry. Strawberry D=fruity strawberry.

[5] = Isointensity (R-index) of 20 ppm Compound 13 in water, alone and with 7% sucrose, versus sucrose solutions
Description: The sweet enhancement effect of Compound 13 is illustrated in the following tables: the isointensity of Compound 13 at 20 ppm equals 0.5% sucrose. The isointensity of 7% sucrose with 20 ppm 1-(2-hydroxyphenyl)-3-(pyridin-4-yl)propan-1-one is 8% sucrose. Therefore, the perceived enhancement of sucrose is about 0.5% sucrose (8%-7.5%). This sweet enhancement effect is also observed with consumable products containing other natural and artificial sweeteners, for example, carbohydrates; sucrose, lactose, D-glucose, D-tagatose, D-fructose whether naturally- or synthetically-produced, erythritol, threitol, arabitol, ribitol, xylitol, sorbitol, mannitol, maltitol, isomaltitol, dulcitol, and lactitol, thaumatin, glycin, D-phenylalanine, D-tryptophan, sodium cyclamate, acesulfam K, neohesperidine dihydrochalcone, sodium salt of saccharin, aspartame, superaspartame, neotam, alitam, sucralose, and stevioside.

[6] = 7% sucrose + 20 ppm Cmpd 13 in water vs. 7% sucrose
[7] = 7% sucrose + 20 ppm Cmpd 13 in water vs. 8% sucrose
[8] = 7% sucrose + 20 ppm Cmpd 13 in water vs. 9% sucrose
[9] = 7% sucrose + 20 ppm Cmpd 13 in water vs. 10% sucrose
[10] = 20 ppm Compound 13 in water vs. 0.5% sucrose
[11] = 20 ppm Compound 13 in water vs. 1% sucrose

Cl.O=C(CCc1ccncc1)c1ccccc1O [Example 21, 4-(3-(2-hydroxyphenyl)-3-oxopropyl)pyridinium chloride]
sweet isointensity (isosweet to) ([1]; 30 ppm): 0.75 % sucrose
sweetness equivalent ([1]; 30 ppm of the compound + 7% sucrose): 8.5 % sucrose
sweet isointensity (isosweet to) ([1]; 35 ppm): 1.0 % sucrose
sweet isointensity (isosweet to) ([1]; 40 ppm): 1.25 % sucrose
isosweet to [2]: 6.5 % sugar

O=C(CCc1nccs1)c1ccccc1O [Example 15, 1-(2-hydroxyphenyl)-3-(thiazol-2-yl)propan-1-one]
Taste results in water ([3]; 0.01 ppm): delayed umami aftertaste
Taste results in water ([3]; 0.1 ppm): delayed umami aftertaste
Taste results in water ([3]; 1 ppm): weak plastic, soap, umami, astringent
Taste results in water ([3]; 10 ppm): astringent. strong umami, weak soap, slight bitter
Taste results in water ([3]; 100 ppm): bitter. umami

O=C(CCc1ccncc1)c1ccccc1O [Example 13, 1-(2-hydroxyphenyl)-3-(pyridin-4-yl)propan-1-one]
Flavorist Evaluation ([4]; 2% milk, 20 ppm compound 13): Slight change in profile, Sweeter than control
Flavorist Evaluation ([4]; Cereal, 50% reduced sugar + 20 ppm of compound 13): Not lingering, more brown notes, roasted,
Flavorist Evaluation ([4]; Cereal, 50% reduced sugar + 20 ppm of compound 13 + 100 ppm of Sweet Flavor B): Nice, works well, more close to sugar taste,
Flavorist Evaluation ([4]; Cereal, 50% reduced sugar + 50 ppm of compound 13): Sweeter than 50% reduced control, better
Flavorist Evaluation ([4]; Strawberry yoghurt, 3% fat, 7% sugar, Strawberry flavour D @ 0.1% + 10 ppm of compound 13): Fruity, slightly fermented, caramellic, green
Flavorist Evaluation ([4]; Strawberry yoghurt, 3% fat, 7% sugar, Strawberry flavour D @ 0.1% + 25 ppm of compound 13): Fruity, sweet, fermented, caramellic, apple like
Flavorist Evaluation ([4]; Strawberry yoghurt, 3% fat, 7% sugar, Strawberry flavour D @ 0.1% + 50 ppm of compound 13): Fermented, sweet, brown, caramellic, overripe
Flavorist Evaluation ([4]; Vanilla ice cream, 8% vegetable fat, Vanilla flavour A @ 0.5% + 10 ppm of compound 13): creamy, vanillic, sweet, slightly cooked
Flavorist Evaluation ([4]; Vanilla ice cream, 8% vegetable fat, Vanilla flavour A @ 0.5% + 15 ppm of compound 13): creamy, sweet, vanillic, lingering sweet vanilla
Flavorist Evaluation ([4]; Vanilla ice cream, 8% vegetable fat, Vanilla flavour A @ 0.5% + 30 ppm of compound 13): sweet, vanillic, lingering sweet vanilla
Flavorist Evaluation ([4]; Water, 7% sugar + 20 ppm of compound 13): Sweeter than 7% sugar, little floral, fuller, slight
Flavorist Evaluation ([4]; Water, 7% sugar + 50 ppm of compound 13): Sweeter than above, very close to 9% sugar-
Flavorist Evaluation ([4]; Water, 7% sugar with 0.105% Citric acid + 20 ppm of compound 13): Sweeter than control, not effecting acidity,
Flavorist Evaluation ([4]; Water, 7% sugar with 0.105% Citric acid + 50 ppm of compound 13): Sweeter than sample at 20 ppm, musty, clean,
Flavorist Evaluation ([4]; Water, Strawberry A @ 0.2% + 20 ppm compound 13): Green character remains but softer, sweeter
Flavorist Evaluation ([4]; Water, Strawberry B @ 0.2% + 20 ppm compound 13): Sweeter, less green, jammer, maltol-like note,
Flavorist Evaluation ([4]; Water, Strawberry C @ 0.2% + 20 ppm compound 13): Less green, less floral, burnt sugar caramel
Flavorist Evaluation ([4]; Water, Sweetness Improver Flavor A + 5 ppm compound 13 in 25% sugar reduction Grape Type Drink): Sweet grape character with the acidic middle
R-index [5, 6]: 66%
sample sweetness [5, 6]: sweeter
R-index [5, 7]: 43%
sample sweetness [5, 7]: isosweet
R-index [5, 8]: 8%
sample sweetness [5, 8]: less
R-index [5, 9]: 4%
sample sweetness [5, 9]: less
isointensity ([5]; 7% sucrose with 20 ppm compound): 8 % sucrose
R-index [5, 10]: 61%
sample sweetness [5, 10]: isosweet
R-index [5, 11]: 14%
sample sweetness [5, 11]: less sweet
perceived enhancement of sucrose ([5]; 20 ppm in 7% sucrose (8%-7.5%)): about 0.5 % sucrose
isointensity ([5]; 20 ppm in water): 0.5 % sucrose
Taste results in water ([3]; 0.01 ppm to 0.1 ppm): nothing
Taste results in water ([3]; 1 ppm): weak sweet
Taste results in water ([3]; 10 ppm): sweet
Taste results in water ([3]; 100 ppm): very sweet, licorice linger

COc1ccc(CCC(=O)c2ccccc2O)cn1 [Example 1, 1-(2-hydroxyphenyl)-3-(6-methoxypyridin-3-yl)propan-1-one]
Taste results in water ([3]; 5 ppm): very weak sweet
Taste results in water ([3]; 20 ppm): weakly sweet
Taste results in water ([3]; 100 ppm): very strong sweet, weak bitter taste

Cc1cc(CCC(=O)c2ccccc2O)no1 [Example 6, 1-(2-hydroxyphenyl)-3-(5-methylisoxazol-3-yl)propan-1-one]
Taste results in water ([3]; 0.1 ppm): slightly bitter
Taste results in water ([3]; 1 ppm): slightly bitter, weakly sweet
Taste results in water ([3]; 10 ppm): brothy, umami, soapy, irritating, garlic
Taste results in water ([3]; 100 ppm): umami, bitter, soapy, garlic

O=C(CCc1cccnc1)c1ccccc1O [Example 7, 1-(2-hydroxyphenyl)-3-(pyridin-3-yl)propan-1-one]
Taste results in water ([3]; 0.1 ppm): nothing
Taste results in water ([3]; 1 ppm): very weak sweet, astringent
Taste results in water ([3]; 10 ppm): waxy, delayed sweet, astringent
Taste results in water ([3]; 100 ppm): weak sweet, chemical, bitter

COc1cccc(CCC(=O)c2ccccc2O)n1 [Example 2, 1-(2-hydroxyphenyl)-3-(6-methoxypyridin-2-yl) propan-1-one]
Taste results in water ([3]; 10 ppm): Slightly sweet/bitter
Taste results in water ([3]; 100 ppm): sweet, bitter, slight fruity

O=C(CCc1ccco1)c1ccccc1O [Example 8, 3-(furan-2-yl)-1-(2-hydroxyphenyl)propan-1-one]
Taste results in water ([3]; 0.01 ppm): nothing
Taste results in water ([3]; 0.1 ppm): soap, delayed sweet
Taste results in water ([3]; 1 ppm): soap, umami, bitter
Taste results in water ([3]; 10 ppm): licorice aroma, soapy, weak sweet, bitter, vegetable, terpen
Taste results in water ([3]; 100 ppm): bitter, licorice aroma, weak sweet, celery, umami, brothy

COc1ncccc1CCC(=O)c1ccccc1O [Example 3, 1-(2-hydroxyphenyl)-3-(2-methoxypyridin-3-yl)propan-1-one]
Taste results in water ([3]; 1 ppm): Very weak sweet
Taste results in water ([3]; 10 ppm): Very weak sweet
Taste results in water ([3]; 50 ppm): bitter, weakly sweet and burning

O=C(CCc1ccccn1)c1ccccc1O [Example 12, 1-(2-hydroxyphenyl)-3-(pyridin-2-yl)propan-1-one]
Taste results in water ([3]; 1 ppm): umami
Taste results in water ([3]; 10 ppm): high umami like taste
Taste results in water ([3]; 100 ppm): strong umami, slightly bitter

COc1ccc(CCC(=O)c2ccc(O)cc2O)cn1 [Example 18]
Taste results in water ([3]; 100 ppm): 100 ppm, sweet

Cc1ncsc1CCC(=O)c1ccccc1O [Example 4, 1-(2-hydroxyphenyl)-3-(4-methylthiazol-5-yl)propan-1-one]
Taste results in water ([3]; 0.1 to 1 ppm): petroleum, sulfur
Taste results in water ([3]; 10 ppm): very weak sweet, brothy
Taste results in water ([3]; 100 ppm): sweet, brothy, gassy, bitter, linger

Cc1csc(CCC(=O)c2ccccc2O)n1 [Example 11, 1-(2-hydroxyphenyl)-3-(4-methylthiazol-2-yl)propan-1-one]
Taste results in water ([3]; 0.01 ppm): nothing
Taste results in water ([3]; 0.1 ppm): very weak bitter
Taste results in water ([3]; 1 ppm): astringent, bitter
Taste results in water ([3]; 10 ppm): bitter, astringent
Taste results in water ([3]; 100 ppm): bitter, terpen, weak sweet
